Paper PMC8894159, “Paltusotine, a novel oral once-daily nonpeptide SST2 receptor agonist, suppresses GH and IGF-1 in healthy volunteers” (Pituitary, 2022)
Several values for one entry are separate records, joined by “and”; a condition that tells them apart may be missing. Equal values may be shown once. Read-outs that look alike come from different tables or passages of the source.

What was measured:
[1] = Multiple ascending dose plasma pharmacokinetics in healthy volunteers; type: in vivo, human; settings: for Cmax / Tmax / AUC(0-t) / half-life: human, plasma, oral; for AUC(0-t): read-out: AUC0-24
Procedure: In the single-dose phase, participants were randomized 6:2 to paltusotine (1.25, 2.5, 5, 10, 20, 40, and 60 mg) or placebo in 7 cohorts (S1 to S7). Cohorts comparing oral bioavailability of solution versus capsules and the effect of a standardized high-fat, high-calorie breakfast on oral bioavailability of the capsule formulation employed the 10 mg dose level. In the multiple-dose phase, participants were randomized 6:3 to once-daily oral paltusotine capsules or placebo at doses of 5 mg for 7 days (M1, Day Last = Day 7), and 10, 20, and 30 mg daily for 10 days (M2, M3, M4, Day Last = Day 10). The initial starting dose of 1.25 mg in the single-dose phase was selected for this study based on nonclinical pharmacologic activity, pharmacokinetics, and safety studies. Subsequent doses were either specified in the protocol or were selected by the safety review committee responsible for the safety oversight of the study.
Single-dose cohorts: Plasma samples were collected on Day 1 (pre-dose, every 15 min up to 90 min post-dose, then at 2, 3, 4, 6, 8, 10, 12, 18, 24, 48, 72, 96, 120, and 144 h post-dose). Multiple-dose cohorts: For the 5 mg cohort, plasma samples were collected on Day 1 (pre-dose, every 15 min up to 90 min post-dose, then at 2, 3, 4, 6, 8, 10, 12, and 18 h post-dose), Days 2–6 (pre-dose and 2 h post-dose), Day 7 (same time points as Day 1, followed by samples at 18, 24, 48, 72, 96, 120, and 144 h post-dose). For all other multiple-dose cohorts, plasma samples were collected on Day 1 (pre-dose, every 15 min up to 90 min post-dose, then at 2, 3, 4, 6, 8, 10, 12, and 18 h post-dose), Days […] (same time points as Day 1, followed by samples at 18, 24, 48, 72, 96, 120, 144, 192, and 240 h post-dose).
Plasma pharmacokinetic sample analysis for paltusotine was determined using validated procedures by CPR Pharma Services (Thebarton, Australia). Briefly, plasma paltusotine concentrations were determined by high-pressure liquid chromatography (HPLC) coupled with tandem mass spectrometry detection (MS/MS). Deuterated paltusotine was used as an internal standard. Supported liquid extraction was used to extract paltusotine and the internal standard. The analyte was separated by HPLC using an ACE C18-AR column (Advanced Chromatography Technologies, Ltd, Aberdeen, Scotland), and the eluates were monitored by an API 4000™ LC–MS/MS System (Sciex, Framingham, MA) in positive multiple reaction monitoring mode. The extract was then assayed against a calibration curve. The data were acquired and integrated by the data acquisition software Analyst® (Sciex), linked directly to the API 4000™ LC–MS/MS System, and then processed using Watson LIMS™ software (Thermo Scientific, Waltham, MA), where applicable. The calibration range was 0.100 to 100 ng/mL using 100 μL of plasma, with a lower limit of quantification of 0.100 ng/mL. The inter-assay accuracy was 94% to 100%, and the inter-assay precision (% CV) was between 6.1% and 15%.
For assessing pharmacokinetics of paltusotine, the single-dose pharmacokinetic population included all randomized participants who received any amount of study drug with sufficient plasma concentration data. For the multiple-dose cohorts, only participants who received all doses were included. The relative bioavailability of the capsule formulation was determined by comparing its pharmacokinetic parameters with those of the solution formulation at the 10 mg dose. Food effect was determined at the same dose by comparing pharmacokinetic parameters in the fasting state to those when paltusotine was administered with a high-fat, high-calorie meal. For both formulation and food effect, ANOVA with treatment as a fixed effect and subject as a random effect was performed. Data for peak concentration (Cmax), AUC0-last, and AUC0-inf were natural log-transformed.

[2] = Safety and tolerability, multiple-dose cohorts; type: in vivo, human
Procedure: Safety assessments included monitoring of clinical laboratory tests, cardiovascular safety monitoring (continuous Holter monitoring, ECG, telemetry), and physical examinations conducted at scheduled times throughout the study in the research units as well as post-discharge (up to 9 days after the single-dose, or up to 11 days after the last dose for multiple-dose cohorts). Adverse events and concomitant medications were recorded. Laboratory samples for clinical chemistry, hematology, coagulation tests, and urinalysis were collected under fasted conditions. Participants who discontinued prematurely attended an early termination visit. In the multiple-dose cohorts, baseline serum TSH, ACTH, and prolactin samples were collected on Day -2, and an oral glucose tolerance test (OGTT) was conducted on Day -7 or earlier. These assessments were repeated on Day 8 (M1) or Day 11 (M2 and subsequent cohorts). A safety review committee oversaw the study and made decisions to escalate, expand or decrease the dose for the cohorts based on a review of demographics, pharmacokinetics, pharmacodynamics, and safety data in a blinded fashion. For the safety analysis, adverse events were coded using the Medical Dictionary for Regulatory Activities (MedDRA® Version 20.0). Adverse events were grouped by preferred terms. Treatment-emergent adverse events (TEAEs) were summarized with descriptive statistics.

[3] = 5 mg, 5 mg capsules once daily, Day 1, mean ± SD
[4] = 5 mg, 5 mg capsules once daily, Day 7, mean ± SD
[5] = 10 mg, 10 mg capsules once daily, Day 1, mean ± SD
[6] = 10 mg, 10 mg capsules once daily, Day 10, mean ± SD
[7] = 20 mg, 20 mg capsules once daily, Day 1, mean ± SD
[8] = 20 mg, 20 mg capsules once daily, Day 10, mean ± SD
[9] = 30 mg, 30 mg capsules once daily, Day 1, mean ± SD
[10] = 30 mg, 30 mg capsules once daily, Day 10, mean ± SD
[11] = multiple-dosing, safety population N = 24
[12] = multiple-dosing, safety population N = 24, listed as Paltusotine
[13] = one subject, cohort M3 20 mg, discontinued after Day 5

## Cl.N#Cc1cccc(-c2ccc3ncc(-c4cc(F)cc(F)c4)c(N4CCC(N)CC4)c3c2)c1O [paltusotine, 3-[4-(4-Aminopiperidin-1-yl)-3-(3,5-difluorophenyl)quinolin-6-yl]-2-hydroxybenzonitrile hydrochloride]
[1]; 5 mg capsules once daily, Day 7, mean ± SD
  Ctrough: 10.8 ± 5.11 ng/mL
[1]; 10 mg capsules once daily, Day 10, mean ± SD
  Ctrough: 22.2 ng/mL and 22.2 ± 7.38 ng/mL
[1]; 20 mg capsules once daily, Day 10, mean ± SD
  Ctrough: 37.9 ± 11.4 ng/mL
[1]; 30 mg capsules once daily, Day 10, mean ± SD
  Ctrough: 51.1 ± 32.0 ng/mL
[1]; [3]
  Cmax: 16.8 ± 7.22 ng/mL
  Tmax: 1.2 ± 0.1 h
  AUC(0-t): 167 ± 73.4 ng·h/mL
[1]; 5 mg, 5 mg capsules once daily, Day 7, sampling to 144 h, mean ± SD, read-out: t1/2 (converted)
  half-life: 34 ± 4.7 h
[1]; [4]
  Cmax: 35.5 ± 12 ng/mL
  Tmax: 2.1 ± 0.6 h
  AUC(0-t): 421 ± 163 ng·h/mL
[1]; [5]
  Cmax: 78.7 ± 45.3 ng/mL
  Tmax: 1.8 ± 0.9 h
  AUC(0-t): 661 ± 340 ng·h/mL
[1]; 10 mg, 10 mg capsules once daily, Day 10, sampling to 240 h, mean ± SD, read-out: t1/2 (converted)
  half-life: 42 ± 5 h
[1]; [6]
  Cmax: 75.5 ± 37.4 ng/mL
  Tmax: 3 ± 1.8 h
  AUC(0-t): 956 ± 371 ng·h/mL
[1]; [7]
  Cmax: 88.7 ± 43.3 ng/mL
  Tmax: 2.4 ± 0.8 h
  AUC(0-t): 811 ± 409 ng·h/mL
[1]; 20 mg, 20 mg capsules once daily, Day 10, sampling to 240 h, mean ± SD, read-out: t1/2 (converted)
  half-life: 50 ± 6.6 h
[1]; [8]
  Cmax: 132 ± 79.2 ng/mL
  Tmax: 1.6 ± 0.4 h
  AUC(0-t): 1560 ± 733 ng·h/mL
[1]; [9]
  Cmax: 78.2 ± 60.7 ng/mL
  Tmax: 1.4 ± 0.9 h
  AUC(0-t): 578 ± 411 ng·h/mL
[1]; 30 mg, 30 mg capsules once daily, Day 10, sampling to 240 h, mean ± SD, read-out: t1/2 (converted)
  half-life: 46 ± 7.4 h
[1]; [10]
  Cmax: 154 ± 102 ng/mL
  Tmax: 4.5 ± 2.1 h
  AUC(0-t): 2080 ± 1220 ng·h/mL
[1]; conclusion summary, read-out: approximate t1/2
  half-life: 24 to 48 h
[1]; multiple dose 10-30 mg range, sampling to 240 h after last dose, read-out: mean t1/2
  half-life: 42 to 50 h
[2]; 30 mg multiple dose, 95% CI 1.8-4.6, placebo 1.5
  increase in glucose AUC0-3 upon 75 g oral glucose challenge compared to baseline: 3.2 mmol·h/L
[2]; all cohorts
  heart rate, ECG morphology, PR duration, QRS interval, QTcF interval: no clinically meaningful changes
[2]; multiple-dose cohorts
  fasting plasma glucose: not significantly changed
  share of TEAEs occurring at a dose level of 10 mg or higher: 78%
[2]; [11]
  Abdominal pain (TEAE): 4 n (%)
  Diarrhea (TEAE): 4 n (%)
  Headache (TEAE): 3 n (%)
  Hyperglycemia (TEAE): 2 (8.3%) n (%)
  Lipase/pancreatic enzymes increased (TEAE): 2 (8.3%) n (%)
  Participants with at least 1 TEAE: 17 (70.8%) n (%)
  Upper respiratory tract infection (TEAE): 2 (8.3%) n (%)
  Ventricular tachycardia (non-sustained) (TEAE): 2 (8.3%) n (%)
[2]; [12]
  Abdominal pain (TEAE): 4 (16.7%) n (%)
  Diarrhea (TEAE): 4 (16.7%) n (%)
  Headache (TEAE): 3 (12.5%) n (%)
[2]; [13]
  amylase peak: 2 times the upper limit of normal
  lipase peak: 3.9 times the upper limit of normal
[2]; one subject, cohort M4 30 mg, 24 h after the tenth dose
  lipase elevation: 1.7 times the upper limit of normal
[2]; repeated administration
  TSH, ACTH, or prolactin levels: no consistent trends of clinical relevance
[2]; repeated daily capsules, 7 days (5 mg) and 10 days (10, 20, 30 mg)
  tolerability: well tolerated
